Patent US20140350097A1, “TREATMENT OF HYPOTENSION ASSOCIATED WITH HEMODIALYSIS” (priority 2013, published 2014)

Columns and labels:
male Wistar rats = assay: Preliminary acute single dose toxicity study in male Wistar rats; type: in vivo, rat; settings: single I.V. 30-608 mg/kg or S.C. 250-1,000 mg/kg, 7-day observation
Experimental: NOX-100 has been evaluated in a number of toxicological studies, including acute (single-dose in rats and dogs; 4-day dosing in rats and dogs), subacute (14-day dosing in rats and dogs) studies, and in vitro mutagenicity testing.
In a preliminary acute single dose study, male Wistar rats were administered NOX-100 intravenously (I.V.) at doses of 30-608 mg/kg or subcutaneous (S.C.) doses of 250-1,000 mg/kg. Each dosing was followed by a 7-day observation period. […] Another group of male Wistar rats were administered NOX-100 with Fe^2+ as a single SC dose at 250-1,000 mg/kg. […] Without wishing to be bound by any theory, it is believed that this discoloration was due to the color of the compound at the high dose.

beagle dogs [1] = assay: 1 or 4 day infusion toxicity in beagle dogs; type: in vivo, dog
beagle dogs [2] = assay: Four-week repeated dose intravenous toxicity study in beagle dogs with two-week recovery; type: in vivo, dog
Experimental: The objective of this study was to investigate the toxicity of NOX-100 when administered as a single intravenous injection once daily for four consecutive weeks to beagle dogs and to determine the reversibility of changes which were established as treatment related. In addition, the systemic exposure of the animals to the test substance was determined and evaluated for correlation with dose and time after starting treatment.
NOX-100 was administered intravenously as a daily single dose (20 mL/kg administered over approximately 2.5 minutes) of 100, 300, and 1000 mg/kg for four weeks in Beagle dogs (n=17 dogs per gender−unbalanced randomization across treated groups). Following the termination of treatment, an additional group of dogs in the Control and highest dose group were held for a period of two weeks in order to determine if the potential treatment related changes were reversible.

rats = assay: 4-day infusion toxicity in rats (2000 mg/kg over 2 hours); type: in vivo, rat
Experimental: The high dose of 2000 mg/kg of NOX-100 administered over a period of 2 hours was again tested in a group of rats for 4 consecutive days. […] Mitotic figures in basophilic tubules were also noted. These changes were considered treatment related. […] It appeared that female rats had lower plasma concentrations of NOX-100 compared to males.

Crj:CD(SD)IGS rats (SPF) = assay: Four-week repeated dose intravenous toxicity study in rats with two-week recovery; type: in vivo, rat
Experimental: The objective of this study was to investigate the toxicity of NOX-100 when administered as a single intravenous injection once daily for four consecutive weeks to Sprague-Dawley (SPF) rats and to determine the reversibility of changes which were established as treatment related.
NOX-100 was administered intravenously as a daily single dose (“pulse”) (40 mL/kg) at doses of 100, 500, and 2000 mg/kg/day for four weeks in Crj:CD(SD)IGS rats (SPF). The Control group was treated with saline (n=60 rats per gender−balanced randomization across all groups.) Following termination of treatment, an additional group of rats in the Control and highest dose group were held for a period of two weeks in order determine if the potential treatment related changes were reversible.

[3] = Preliminary intravenous pharmacokinetics in mice; type: in vivo, mouse; settings: bolus injection 30 mg/kg i.v.
Experimental: The pharmacokinetics of intravenously administered NOX-100 was evaluated in mice, rats and dogs. Preliminary pharmacokinetic studies were conducted using a bolus injection of 30 mg/kg. Post injection, the drug was rapidly eliminated in all three species in a bi-exponential manner with a beta-t½ of approximately 6, 30 and 40 minutes in the mouse, rat and dog, respectively. […] The volume of distribution was around 20-30% of body weight and was similar in the three species. This is likely due to the hydrophilic nature of the drug and may reflect the distribution of NOX-100 primarily in the extracellular space.

Wistar rats = assay: Endotoxin (LPS)-induced shock in Wistar rats; type: in vivo, rat
Excerpt: For example, in Wistar rats, shock induced by endotoxin such as LPS (lipopolysaccharide from Salmonella typhosa) is accompanied by severe hypotension, as well known in the art. […] In addition, the survival rate was increased by NOX-100.
Bacterial translocation across damaged intestinal epithelium into the circulation occurs in rats during endotoxin-induced shock, as evidenced by positive bacterial cultures grown from blood, mesenteric lymph nodes, spleen, or liver obtained after LPS challenge.
Moreover, in the rat shock model, liver injury occurs as a result of hypoperfusion and Kupffer cell activation with the release of cytokines by LPS.

mice = assay: Blood pressure studies in mice; type: in vivo
Excerpt: The lack of effect on normal blood pressure is advantageous for NOX-100 as a small molecule .NO scavenger.

[4] = Water solubility and isotonicity of Sodium MGD; type: physicochemical
Experimental: Sodium MGD is a white to slightly yellowish powder with 1.5 molecules of co-crystallized water, and is water soluble up to 35% w/v at approximately 25° C. A 4.5% (w/v) solution of the Sodium MGD in water without any additives affords a near isotonic solution.

[5] = both, beagle, dog, in vivo, 4 weeks
[6] = 2000 mg/kg over 2 hours, 4 consecutive days

Question: Which results are given for `CN(C[C@H](O)[C@@H](O)[C@H](O)[C@H](O)CO)C(=S)S` [NOX-100, N-methyl-D-glucamine dithiocarbamate]?
Answer: mortality and overt signs of toxicity (male Wistar rats): no mortality or overt signs of toxicity; pathological findings (beagle dogs [1]; 2000 mg/kg/day): thickening of the duodenal wall and tubular dilatation of the kidney with basophilia in the cortex and vacuolation in the areas of cortical tubules; body weight and food consumption (beagle dogs [1]; 500-2000 mg/kg/day, 8-hour infusion, 1 or 4 days): decreased; plasma concentrations on Day 4 compared to Day 1 (beagle dogs [1]; 2 hours from the start of infusion, males and females): apparent increases; doses at which signs of adverse effects were first observed (beagle dogs [1]; dogs): 500 to 2000 mg/kg/day; clinical observation: salivation (beagle dogs [2]; [5]): salivation in the 1000 mg/kg group; clinical observation: vomiting (beagle dogs [2]; [5]): vomiting in the 100 mg/kg or higher dose groups; body weight, food consumption, hematology, EKG, ophthalmology or organ weights (beagle dogs [2]; dog, in vivo): no changes; gender related difference in systemic exposure (beagle dogs [2]; dog, in vivo): no gender related difference; incidence of vomiting after dosing, Treated groups versus group not dosed (beagle dogs [2]; dog, in vivo): higher; microscopic changes due to study substance (beagle dogs [2]; dog, in vivo): no microscopic changes; reversibility of other changes (beagle dogs [2]; dog, in vivo): reversed completely or showed a tendency for reversal; site of main toxicological findings (beagle dogs [2]; dog, in vivo): kidneys and urinary bladder; systemic exposure (blood levels) versus dose (beagle dogs [2]; dog, in vivo): linear dose dependent increase; urine specific gravity and urine volume (beagle dogs [2]; dog, in vivo): decrease in specific gravity and increase in urine volume; histopathological examination: pelvic mucosa and urinary bladder (beagle dogs [2]; dog, in vivo, 1000 mg/kg): Inflammatory cell infiltration in the pelvic mucosa, and erosion of mucosa in the urinary bladder; kidney histopathology of the moribund animal (beagle dogs [2]; dog, in vivo, 1000 mg/kg): moderate basophilia of the proximal renal tubules, pelvic mucosal epithelial hyperplasia, hyaline droplets in the proximal tubular epithelium and pelvic mucosal epithelium in the kidneys; laboratory determinations of sodium (beagle dogs [2]; dog, in vivo, 1000 mg/kg): increased; laboratory results on the day of necropsy, moribund animal (beagle dogs [2]; dog, in vivo, 1000 mg/kg): an increased white cell count with increased segmented neutrophils and an increase in gamma GT, ALP, urea nitrogen, creatinine, glucose, cholesterol, phospholipids, triglyceride, total protein, albumin, inorganic phosphorus and magnesium and a decrease in sodium and chloride; moribundity (beagle dogs [2]; dog, in vivo, 1000 mg/kg): became moribund six days after starting treatment; necropsy organ weights of the moribund animal (beagle dogs [2]; dog, in vivo, 1000 mg/kg): increased absolute and relative weight of the liver, kidneys and adrenals with a decrease noted in the thymus weight; other histopathological findings in the moribund animal (beagle dogs [2]; dog, in vivo, 1000 mg/kg): follicular atrophy of the mesenteric lymph node, acute atrophy of the thymus, glycogen accumulation in the liver, erosion of mucosa in the urinary bladder, and hypertrophy of cortical cells in the fascicular zone of the adrenals; renal papilla of the moribund animal (beagle dogs [2]; dog, in vivo, 1000 mg/kg): for the most part necrotic; no adverse effect level (beagle dogs [2]; dogs, pulse IV injection daily, four weeks): less than 100 mg/kg; clinical signs in the moribund animal (beagle dogs [2]; male, beagle, dog, in vivo, 1000 mg/kg): vomiting occurred on Days 1 to 6, no stools were passed on Days 4 to 6, decreased locomotor activity was noted on Days 5 to 6 and hypothermia and lateral position was noted on Day 6; plasma concentrations in female rats compared to males (rats; 2000 mg/kg): lower; hemoglobin and hematocrit values (rats; [6]): slight decrease; red blood cell count (rats; [6]): slight decrease; animals with cortical tubular basophilia of the kidney, occasionally with tubular dilatation (rats; 5 males, 2000 mg/kg/day, 2-hour infusion, 4 consecutive days): 5/5; plasma concentrations on Day 4 compared to Day 1 (rats; HPLC, 1 and 1.75 hours after infusion, 2000 mg/kg): slightly higher; mitotic figures in basophilic tubules (rats; males, 2000 mg/kg/day, 4 consecutive days): noted; food consumption or body weight gain versus Control (Crj:CD(SD)IGS rats (SPF); rat, in vivo): no significant differences; ophthalmological examinations (Crj:CD(SD)IGS rats (SPF); rat, in vivo): No changes; reversibility after a two week period of bladder mucosal hyperplasia, proximal tubule basophilia and renal papillary edema (Crj:CD(SD)IGS rats (SPF); rat, in vivo): could not be confirmed; reversibility of urinary bladder change (Crj:CD(SD)IGS rats (SPF); rat, in vivo): no clear-cut reversibility; blood sodium, chloride and albumin (Crj:CD(SD)IGS rats (SPF); rat, in vivo, 2000 mg/kg): increased; cholesterol level (Crj:CD(SD)IGS rats (SPF); rat, in vivo, 2000 mg/kg): increased; hemoglobin (Crj:CD(SD)IGS rats (SPF); rat, in vivo, 2000 mg/kg): decrease; no adverse effect level (Crj:CD(SD)IGS rats (SPF); rats, daily single i.v. dose, four weeks): 100 mg/kg; half-life ([3]; in vivo, iv, mouse, read-out: beta-t½): ~6 min; volume of distribution ([3]; mice): 20-30 % of body weight; clearance ([3]; mouse, in vivo, iv, mice, read-out: clearance rate): 26 mL/min/kg; survival rate (Wistar rats; Wistar rats, LPS shock): increased; LPS shock hypotension (Wistar rats; Wistar rats, dose 0.3 mmol/kg): gradually reversed towards normal blood pressure levels; plasma indices of liver injury (ornithine carbamoyltransferase, aspartate transaminase, fibrinogen) (Wistar rats; rat shock model, 200 mg/kg/day): all significantly reduced; reduction of bacterial translocation (Wistar rats; rats, endotoxin-induced shock, prior infusion 200 mg/kg/day): about 70%; effect on hypotensive effect of nitroprusside (mice; co-administration with sodium nitroprusside (.NO donor)): reduced the hypotensive effect of nitroprusside; effect on blood pressure (mice; intravenous infusion of NOX-100 alone): did not affect blood pressure; water solubility ([4]; approximately 25° C.): up to 35 % w/v; concentration of solution in water that is near isotonic ([4]; in water without any additives): 4.5 % (w/v)
